Test results taken from ChEMBL document CHEMBL1201862, “PubChem BioAssay data set” (2004).
Calls of active or inactive are those of the source.

Key:
[1] = target: T1, Corticotropin-releasing factor receptor 2/Corticotropin-releasing factor-binding protein (Homo sapiens, UniProt P24387+Q13324); assay: activators of CRF receptor 2 with binding protein – uHTS hits, confirmation (AID 602473); assay type: functional; settings: read-out: EC50_Mean
T1 sequence (Q13324 whole entry): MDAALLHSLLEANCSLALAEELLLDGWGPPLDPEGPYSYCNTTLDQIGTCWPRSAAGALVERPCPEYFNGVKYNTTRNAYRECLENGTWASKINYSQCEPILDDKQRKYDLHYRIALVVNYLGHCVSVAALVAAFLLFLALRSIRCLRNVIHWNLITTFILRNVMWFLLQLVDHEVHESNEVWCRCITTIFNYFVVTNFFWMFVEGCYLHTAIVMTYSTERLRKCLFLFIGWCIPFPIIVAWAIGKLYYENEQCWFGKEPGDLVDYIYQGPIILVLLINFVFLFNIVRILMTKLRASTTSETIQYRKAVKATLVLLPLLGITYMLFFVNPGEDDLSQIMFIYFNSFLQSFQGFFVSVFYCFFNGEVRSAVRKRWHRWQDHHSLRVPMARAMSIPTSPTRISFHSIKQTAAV
T1 sequence (P24387 whole entry): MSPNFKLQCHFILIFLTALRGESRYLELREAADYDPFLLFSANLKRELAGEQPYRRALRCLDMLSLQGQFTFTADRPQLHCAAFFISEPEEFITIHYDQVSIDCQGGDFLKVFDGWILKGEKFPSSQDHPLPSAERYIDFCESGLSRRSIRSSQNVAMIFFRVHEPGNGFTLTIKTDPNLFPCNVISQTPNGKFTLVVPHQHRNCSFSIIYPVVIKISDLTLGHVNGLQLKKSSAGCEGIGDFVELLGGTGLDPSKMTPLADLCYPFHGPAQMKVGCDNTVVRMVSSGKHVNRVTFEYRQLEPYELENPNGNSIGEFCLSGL

[2] = CRF-BP/CRF-R2 complex antagonists, dose response, cell-based, uHTS hits, 384-well (AID 651639); assay type: functional, Homo sapiens; settings: read-out: IC50_Mean
[3] = target: T1, Corticotropin-releasing factor receptor 2/Corticotropin-releasing factor-binding protein; assay: Dose Response confirmation of uHTS hits for small molecule antagonists of the CRF-binding protein and CRF-R2 receptor complex.; assay type: functional; settings: read-out: IC50_Mean
Large T antigen = Large T antigen (Simian virus 40, UniProt P03070); assay type: functional, Betapolyomavirus macacae;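 note: Confirmatory-stage PubChem screen for compounds that inhibit SV40 T antigen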
Sequence of Large T antigen (P03070 whole entry): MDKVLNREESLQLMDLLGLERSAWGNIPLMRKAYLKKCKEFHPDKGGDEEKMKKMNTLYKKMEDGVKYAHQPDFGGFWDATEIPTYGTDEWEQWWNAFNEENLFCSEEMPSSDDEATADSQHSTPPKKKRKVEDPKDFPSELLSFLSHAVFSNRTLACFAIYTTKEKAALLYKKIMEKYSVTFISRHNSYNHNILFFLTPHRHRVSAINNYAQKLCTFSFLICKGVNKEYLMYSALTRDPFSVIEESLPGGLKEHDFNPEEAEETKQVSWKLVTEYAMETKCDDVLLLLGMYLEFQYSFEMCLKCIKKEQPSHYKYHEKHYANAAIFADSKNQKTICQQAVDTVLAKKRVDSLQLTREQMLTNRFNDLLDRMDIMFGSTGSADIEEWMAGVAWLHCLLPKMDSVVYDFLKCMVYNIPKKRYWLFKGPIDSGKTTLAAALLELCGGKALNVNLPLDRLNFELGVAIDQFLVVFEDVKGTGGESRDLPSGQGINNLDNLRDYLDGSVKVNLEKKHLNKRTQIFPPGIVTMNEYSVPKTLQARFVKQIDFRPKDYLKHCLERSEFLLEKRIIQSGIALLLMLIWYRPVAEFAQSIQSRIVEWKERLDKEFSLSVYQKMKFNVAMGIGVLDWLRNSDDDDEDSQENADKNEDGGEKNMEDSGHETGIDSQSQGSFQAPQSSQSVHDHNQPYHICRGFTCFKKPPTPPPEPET

[4] = target: T2, Sentrin-specific protease 8 (Homo sapiens, UniProt Q96LD8); assay type: functional
T2 sequence (Q96LD8 whole entry): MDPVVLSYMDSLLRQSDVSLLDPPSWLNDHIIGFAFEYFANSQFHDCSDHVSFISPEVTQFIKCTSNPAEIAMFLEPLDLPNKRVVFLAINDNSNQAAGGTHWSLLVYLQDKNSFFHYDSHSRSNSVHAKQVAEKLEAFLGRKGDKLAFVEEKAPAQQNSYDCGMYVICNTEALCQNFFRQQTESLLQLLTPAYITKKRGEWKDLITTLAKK

[5] = target: T2, Sentrin-specific protease 8; assay type: functional; remark: listed apart in the source
[6] = target: T3, Fructose-bisphosphate aldolase (Mycobacterium tuberculosis, UniProt P9WQA3); assay: Fluorescence-based biochemical high throughput dose response assay for inhibitors of the fructose-bisphosphate aldolase (FBA) of M. tuberculosis.; assay type: functional
T3 sequence (P9WQA3 whole entry): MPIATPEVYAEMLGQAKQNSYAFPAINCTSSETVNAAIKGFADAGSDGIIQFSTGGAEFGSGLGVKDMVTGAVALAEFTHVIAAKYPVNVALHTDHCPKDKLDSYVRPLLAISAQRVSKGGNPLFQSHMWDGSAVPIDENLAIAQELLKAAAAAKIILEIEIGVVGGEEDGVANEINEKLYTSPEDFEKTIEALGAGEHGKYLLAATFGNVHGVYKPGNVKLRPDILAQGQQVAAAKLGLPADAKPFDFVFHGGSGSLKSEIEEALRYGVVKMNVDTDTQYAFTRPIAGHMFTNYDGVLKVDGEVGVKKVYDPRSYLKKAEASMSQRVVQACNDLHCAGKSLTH

[7] = Counterscreen for inhibitors of Trypanosoma brucei methionyl tRNA synthetase (MetRS): Luminescence-based cell-based high throughput dose response assay to identify compounds that are cytotoxic to Jurkat human T lymphocyte cells.; assay type: functional
[8] = target: T4, Methionyl-tRNA synthetase, putative (Trypanosoma brucei brucei, UniProt Q38C91); assay type: functional, Trypanosoma brucei brucei strain 927/4 GUTat10.1
T4 sequence (Q38C91 whole entry): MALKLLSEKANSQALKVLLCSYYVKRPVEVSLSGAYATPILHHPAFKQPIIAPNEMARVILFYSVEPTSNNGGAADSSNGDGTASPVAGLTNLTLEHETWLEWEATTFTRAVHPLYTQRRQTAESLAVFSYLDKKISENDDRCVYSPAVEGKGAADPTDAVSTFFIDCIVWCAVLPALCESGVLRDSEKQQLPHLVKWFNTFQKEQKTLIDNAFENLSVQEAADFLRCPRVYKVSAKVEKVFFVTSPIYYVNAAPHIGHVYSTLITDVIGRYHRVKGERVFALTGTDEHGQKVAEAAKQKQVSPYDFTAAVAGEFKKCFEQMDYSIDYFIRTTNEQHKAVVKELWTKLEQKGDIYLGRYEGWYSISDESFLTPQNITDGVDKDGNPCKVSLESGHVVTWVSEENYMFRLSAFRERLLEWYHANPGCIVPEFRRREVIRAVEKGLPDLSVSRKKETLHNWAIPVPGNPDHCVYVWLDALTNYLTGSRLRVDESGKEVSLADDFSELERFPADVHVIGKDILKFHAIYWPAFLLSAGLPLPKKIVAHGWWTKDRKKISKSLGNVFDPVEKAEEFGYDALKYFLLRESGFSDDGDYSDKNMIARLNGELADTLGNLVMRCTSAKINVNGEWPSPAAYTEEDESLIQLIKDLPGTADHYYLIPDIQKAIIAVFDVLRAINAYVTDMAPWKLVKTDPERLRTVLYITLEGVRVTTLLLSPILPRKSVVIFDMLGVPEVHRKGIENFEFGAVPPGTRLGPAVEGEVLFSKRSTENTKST

[9] = target: T4, Methionyl-tRNA synthetase, putative; assay type: functional, Trypanosoma brucei brucei strain 927/4 GUTat10.1; remark: listed apart in the source
[10] = Fluorescence-based cell-based high throughput dose response assay for inhibitors of the interaction of nucleotide-binding oligomerization domain containing 2 (NOD2) and the receptor-interacting serine-threonine kinase 2 (RIPK2).; assay type: functional, Homo sapiens

With `O=C(Nc1cc(-c2ccccc2)sc1C(=O)O)c1cccc(F)c1` as the molecule, how does the EC50 [1] read?
Its EC50 is > 53 µM (inactive).

And the IC50 [2]?
Its IC50 is 14.2 µM (active).

What about the IC50 [3] of the same molecule?
Its IC50 is 23.5 µM (active).

Which IC50 (Large T antigen) does the source give for `CCOc1ccc(N2Nc3[nH]nc(N)c3N2)cc1` here?
Its IC50 is 18 µM (active).

And the IC50 [4]?
Its IC50 is 40.6 µM (active).

And the IC50 [5]?
The IC50 was 52.3 µM (active).

For `COc1cc2c(cc1N=C(S)Nc1cccc(C)c1)oc1ccccc12`, which IC50 [6] is on record?
The IC50 was 5.82 µM (active).

For `COc1ccc(Cl)cc1NC(=O)C(C)NC(c1ccccc1)c1ccccc1` (stereo not drawn), which EC50 [1] is on record?
Its EC50 is > 53 µM (inactive).

And the IC50 [2]?
The IC50 was > 20 µM (inactive).

And the IC50 [3]?
The IC50 was 1.14 µM (active).

With `C[C@@H]1C=C(C(=O)NCc2nc3ccccc3[nH]2)O[C@H](OCc2ccc(CO)cc2)C1` as the molecule, how does the IC50 [7] read?
The IC50 was 83.3 µM (inactive).

And the IC50 [8]?
The IC50 was 2.04 µM (active).

And the IC50 [9]?
Its IC50 is 1.47 µM (active).

For `CC1=CC2OC3CC4OC(=O)C=CC=CC(C(C)O)OCC(O)C(C)CC(=O)OCC2(CC1O)C4(C)C31CO1` (stereo not drawn), which IC50 [10] is on record?
The IC50 was 49.8 µM (inactive).

With `OC(c1cc(Cl)cc(Cl)c1)c1nc(-c2ccccc2F)c[nH]1` (stereo not drawn) as the molecule, how does the IC50 [7] read?
The IC50 was 74.4 µM (inactive).

What about the IC50 [8] of the same molecule?
Its IC50 is 9.87 µM (active).

And the IC50 [9]?
Its IC50 is 6.33 µM (active).

For `N#CCC(=O)N/N=C/c1ccc(N2N=C(c3ccccc3)CC2c2ccccc2)cc1` (stereo not drawn), which IC50 [6] is on record?
Its IC50 is 0.198 µM (active).
